Measured values published in patent US10385108B2, “Peptide analogs of alpha-melanocyte stimulating hormone” (Genzyme Corporation, priority 2008, dated 2019).
Where “and” joins values, the source holds several entries; their conditions need not be identical. Identical values can stand only once. Where a SMILES comes first, the peptide text is derived from it. [ ]: non-standard residue; d: D form.

Legend:
C57BL/6 mice = experiment: MOG35-55 induced EAE model; type: in vivo; details: 2 mg/kg
[1] = test system: B16-F1 murine melanoma cells; experiment: Intracellular cAMP in B16-F1 melanoma cells; type: cell-based; details: for cAMP levels (in words): peptide at 1 μg/ml; for EC50: B16-F1 cells, 10^-4-10^-11 M, 30 min, IBMX
Method: B16-F1 (melanoma cell line) cells from American Type Culture Collection (Manassas, Va.) were seeded into flat bottom 96 well plates at 5×10^4/well and cultured overnight in DMEM (Cambrex, Walkersville, Md.) supplemented with 2 mM glutamine, antibiotics (100 U/ml penicillin and 100 […]) and 10% heat-inactivated fetal bovine serum (Invitrogen, Grand Island, N.Y.). […] Cells were lysed and intracellular cAMP levels were measured by an enzyme immunoassay kit (Amersham Biosciences, Piscataway, N.J.). Forskolin (Sigma, St. Louis, Mo.) at 100 μM served as positive controls.
cAMP levels in B16-F1 melanoma cells after treatment with native α-MSH, RI α-MSH, or a scrambled control peptide were examined. The […] melanoma cell line expresses a high number of MCR1 receptors (3000-4000 receptors/cell) compared with macrophages cell lines which express only 100-200 receptors/cell. Therefore we selected to examine the effect of the RI α-MSH treatment on the melanoma cell line. Murine melanoma B16-F1 cells were treated with native α-MSH, RI α-MSH, or control scrambled peptide at concentrations 1 pg/ml-1 μg/ml. After 30 min, cells were lysed and intracellular cAMP was measured by an enzyme immunoassay. […] However, a higher concentration of RI α-MSH (100 ng/ml) was necessary to increase cAMP compared with native α-MSH which increased cAMP at a 10 pg/ml concentration. This difference in concentration of peptide necessary to increase cAMP levels may be the result of the binding affinity to the MCR1 receptor.
Murine melanoma B16-F1 cells were treated with native α-MSH, RI α-MSH, scrambled peptide control, KPV, or alanine substituted peptides of RI α-MSH at 1 μg/ml (FIG. 7B). […] Peptides designated 810, 811, and 812 have alanine substitutions in the central core tetrapeptide sequence (D-Trp D-Arg D-Phe D-His region; AA 5-8) (variant disclosed in SEQ ID NO:2) proposed to be involved in native α-MSH binding to the melanocortin receptor and its biological activity. […] The residues in the core tetrapeptide (wrfh) (variant disclosed in SEQ ID NO:2) and to a lesser extent, the methionine 4 of RI-MSH are critical for binding to MC1R.
B16-F1 murine melanoma cells were cultured into 96 well plates 5×10^4 cells/well overnight in media with L-glutamine and pen/strep and FBS. Media was removed and new media with IBMX was added to the cells for 1 hr. Cells were then treated with RI α-MSH, or RI α-MSH peptide analogs (890, 891, 892, 893, 894 or 895). Cells were lysed after 30 min using a cAMP assay kit and supernatant were used in the assay. Forskolin at 10 μM served as positive controls.
Intracellular cAMP was measured using a cAMP competition Assay Kit (Amersham Biosciences). All cell lysate samples were diluted 1:100 for analysis.
Murine melanoma B16-F1 cells were treated with RI α-MSH, or RI α-MSH analogs (869, 872, 880, 878, 886 and 890-895) at a concentration range of 10^−4-10^−11 M. cAMP levels from cells treated with RI α-MSH, or RI α-MSH analogs. […] See FIG. 22 for graphical data and Table 2 for EC50 data.

MC1R = MC1R (Homo sapiens, UniProt Q01726); experiment: Competitive binding with 125I-NDP-MSH, HEK293 membrane preparations, MC1R; details: for Ki: Ki MC1R, competition with 125I-NDP-MSH;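 for all read-outs here: Read-out: receptor-bound radioligand retained by filtration and counted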
Method: (§1) Binding analysis was done by Cerep laboratories (Paris, France) with coded samples.
(§2) The mixtures were filtered through 96-well GFC filters (Millipore, Billerica, Mass.), washed 3 times with binding buffer without BSA, dried and counted.
(§3) A competitive binding assay using a MCR panel including MCR 1, 3, 4, and 5 was performed.

MC4R = MC4R (Homo sapiens, UniProt P32245); experiment: Competitive binding with 125I-NDP-MSH, HEK293 membrane preparations, MC4R
Method: as §1, §2, §3

MC5R = MC5R (Homo sapiens, UniProt P33032); experiment: Competitive binding with 125I-NDP-MSH, HEK293 membrane preparations, MC5R; details: Ki MC5R, competition with 125I-NDP-MSH; cells noted in μM
Method: as §1, §2, §3

MC3R = MC3R (Homo sapiens, UniProt P41968); experiment: Competitive binding with 125I-NDP-MSH, HEK293 membrane preparations, MC3R
Sequence of MC3R (P41968 whole entry): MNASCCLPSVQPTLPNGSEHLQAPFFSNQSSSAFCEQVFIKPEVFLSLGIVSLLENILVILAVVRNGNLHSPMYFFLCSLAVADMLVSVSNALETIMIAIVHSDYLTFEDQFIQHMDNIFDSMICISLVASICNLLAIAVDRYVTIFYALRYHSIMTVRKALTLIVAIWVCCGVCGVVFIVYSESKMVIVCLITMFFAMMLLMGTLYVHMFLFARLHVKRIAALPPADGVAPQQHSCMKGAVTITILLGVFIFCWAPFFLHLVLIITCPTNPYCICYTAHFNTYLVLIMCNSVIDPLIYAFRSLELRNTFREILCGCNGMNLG
Method: as §1, §2, §3

Sequence of MC5R (P33032 whole entry): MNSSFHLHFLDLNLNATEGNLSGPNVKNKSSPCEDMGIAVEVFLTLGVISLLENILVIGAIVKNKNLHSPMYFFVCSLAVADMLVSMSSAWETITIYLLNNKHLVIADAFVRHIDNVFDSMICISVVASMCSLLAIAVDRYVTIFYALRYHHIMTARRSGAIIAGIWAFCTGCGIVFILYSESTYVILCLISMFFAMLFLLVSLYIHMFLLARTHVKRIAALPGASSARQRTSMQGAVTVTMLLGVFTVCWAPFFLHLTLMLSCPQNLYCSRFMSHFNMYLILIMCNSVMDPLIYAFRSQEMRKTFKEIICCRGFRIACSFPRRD
Sequence of MC1R (Q01726 whole entry): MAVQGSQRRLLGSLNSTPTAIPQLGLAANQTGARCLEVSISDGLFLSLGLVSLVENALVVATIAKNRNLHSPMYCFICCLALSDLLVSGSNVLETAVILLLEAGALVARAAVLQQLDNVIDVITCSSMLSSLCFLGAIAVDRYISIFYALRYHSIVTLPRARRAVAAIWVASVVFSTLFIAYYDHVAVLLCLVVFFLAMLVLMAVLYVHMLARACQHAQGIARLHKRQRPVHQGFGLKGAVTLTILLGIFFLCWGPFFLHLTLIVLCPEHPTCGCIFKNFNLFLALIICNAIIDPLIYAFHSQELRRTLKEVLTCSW
Sequence of MC4R (P32245 whole entry): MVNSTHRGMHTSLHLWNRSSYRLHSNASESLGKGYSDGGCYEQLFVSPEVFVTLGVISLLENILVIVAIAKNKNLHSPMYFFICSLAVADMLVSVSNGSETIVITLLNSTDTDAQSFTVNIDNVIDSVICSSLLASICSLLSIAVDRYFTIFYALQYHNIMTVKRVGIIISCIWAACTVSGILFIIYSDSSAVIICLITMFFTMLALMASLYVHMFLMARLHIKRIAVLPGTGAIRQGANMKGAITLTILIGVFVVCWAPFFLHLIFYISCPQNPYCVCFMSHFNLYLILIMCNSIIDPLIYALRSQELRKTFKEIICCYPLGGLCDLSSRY

Ki (MC1R)	EC50 [1]	Ki (MC5R)	Ki (MC3R)	Compound	cAMP levels (in words) [1]	also measured
				C[C@@H]1C[C@H]2[C@@H]3CCC4=CC(=O)C=C[C@]4(C)[C@@]3(F)[C@@H](O)C[C@]2(C)[C@@]1(O)C(=O)CO [Dexamethasone, dexamethasone, reference compound]		maximum percent incidence of disease (C57BL/6 mice): 40%
				C=C[C@@]1(C)CC(=O)[C@]2(O)[C@@]3(C)[C@@H](O)CCC(C)(C)[C@@H]3[C@H](O)[C@H](OC(C)=O)[C@@]2(C)O1 [Forskolin, reference compound]		cAMP ([1]; 100 μM, positive control): 3455.39±406.6 and 3294.82±54.53
1400 ± 190 nM				CC(=O)N[C@@H](C(=O)N1CCC[C@@H]1C(=O)N[C@H](CCCCN)C(=O)NCC(=O)N[C@H](Cc1c[nH]c2ccccc12)C(=O)N[C@H](CCCNC(=N)N)C(=O)N[C@H](Cc1ccccc1)C(=O)N[C@H](Cc1c[nH]cn1)C(=O)N[C@H](CCC(=O)O)C(=O)N[C@H](C)C(=O)N[C@H](CO)C(=O)N[C@H](Cc1ccc(O)cc1)C(=O)N[C@H](CO)C(N)=O)C(C)C [compound 807, vpkGwrfheasys] (Ac-[dV][dP][dK]G[dW][dR][dF][dH][dE][dA][dS][dY][dS]-NH2)	reduction in cAMP accumulation	
1200 ± 270 nM				CSCC[C@@H](NC(=O)[C@@H](CCC(=O)O)NC(=O)[C@@H](C)NC(=O)[C@@H](Cc1ccccc1)NC(=O)[C@@H](CCCNC(=N)N)NC(=O)[C@@H](Cc1c[nH]c2ccccc12)NC(=O)CNC(=O)[C@@H](CCCCN)NC(=O)[C@H]1CCCN1C(=O)[C@H](NC(C)=O)C(C)C)C(=O)N[C@H](CO)C(=O)N[C@H](Cc1ccc(O)cc1)C(=O)N[C@H](CO)C(N)=O [compound 809, vpkGwrfaemsys] (Ac-[dV][dP][dK]G[dW][dR][dF][dA][dE][dM][dS][dY][dS]-NH2)	reduction in cAMP accumulation	
				CSCC[C@@H](NC(=O)[C@@H](CCC(=O)O)NC(=O)[C@@H](Cc1c[nH]cn1)NC(=O)[C@@H](C)NC(=O)[C@@H](CCCNC(=N)N)NC(=O)[C@@H](Cc1c[nH]c2ccccc12)NC(=O)CNC(=O)[C@@H](CCCCN)NC(=O)[C@H]1CCCN1C(=O)[C@H](NC(C)=O)C(C)C)C(=O)N[C@H](CO)C(=O)N[C@H](Cc1ccc(O)cc1)C(=O)N[C@H](CO)C(N)=O [compound 810, vpkGwrahemsys]	no increase in cAMP activity	
				CSCC[C@@H](NC(=O)[C@@H](CCC(=O)O)NC(=O)[C@@H](Cc1c[nH]cn1)NC(=O)[C@@H](Cc1ccccc1)NC(=O)[C@@H](C)NC(=O)[C@@H](Cc1c[nH]c2ccccc12)NC(=O)CNC(=O)[C@@H](CCCCN)NC(=O)[C@H]1CCCN1C(=O)[C@H](NC(C)=O)C(C)C)C(=O)N[C@H](CO)C(=O)N[C@H](Cc1ccc(O)cc1)C(=O)N[C@H](CO)C(N)=O [compound 811, vpkGwafhemsys] (Ac-[dV][dP][dK]G[dW][dA][dF][dH][dE][dM][dS][dY][dS]-NH2)	no increase in cAMP activity	
				CSCC[C@@H](NC(=O)[C@@H](CCC(=O)O)NC(=O)[C@@H](Cc1c[nH]cn1)NC(=O)[C@@H](Cc1ccccc1)NC(=O)[C@@H](CCCNC(=N)N)NC(=O)[C@@H](C)NC(=O)CNC(=O)[C@@H](CCCCN)NC(=O)[C@H]1CCCN1C(=O)[C@H](NC(C)=O)C(C)C)C(=O)N[C@H](CO)C(=O)N[C@H](Cc1ccc(O)cc1)C(=O)N[C@H](CO)C(N)=O [compound 812, vpkGarfhemsys] (Ac-[dV][dP][dK]G[dA][dR][dF][dH][dE][dM][dS][dY][dS]-NH2)	no increase in cAMP activity	
13.5 nM	2000 nM			CSCC[C@@H](NC(=O)[C@@H](CCC(=O)O)NC(=O)[C@@H](CCCNC(=N)N)NC(=O)[C@@H](Cc1ccccc1)NC(=O)[C@@H](CCCNC(=N)N)NC(=O)[C@@H](Cc1c[nH]c2ccccc12)NC(=O)CNC(=O)[C@@H](CCCCN)NC(=O)[C@H]1CCCN1C(=O)[C@H](NC(C)=O)C(C)C)C(=O)N[C@H](CO)C(=O)N[C@H](Cc1ccc(O)cc1)C(=O)N[C@H](CO)C(N)=O [compound 872, vpkGwrfremsys]		
2.3 nM		~30 µM	~40000 nM	CCCCSCC[C@@H](NC(=O)[C@@H](CCC(=O)O)NC(=O)[C@@H](Cc1c[nH]cn1)NC(=O)[C@@H](Cc1ccccc1)NC(=O)[C@@H](CCCNC(=N)N)NC(=O)[C@@H](Cc1c[nH]c2ccccc12)NC(=O)CNC(=O)[C@@H](CCCCN)NC(=O)[C@H]1CCCN1C(=O)[C@H](NC(C)=O)C(C)C)C(=O)N[C@H](CO)C(=O)N[C@H](Cc1ccc(O)cc1)C(=O)N[C@H](CO)C(N)=O [compound 878, vpkGwrfhe(D-buthionine)sys]		Ki (MC4R): > 30000 nM
72 nM		> 30 µM	> 30000 nM	CSCC[C@@H](NC(=O)[C@@H](CCC(=O)O)NC(=O)[C@@H](Cc1c[nH]cn1)NC(=O)[C@H](Cc1ccccc1)NC(=O)[C@@H](CCCNC(=N)N)NC(=O)[C@@H](Cc1c[nH]c2ccccc12)NC(=O)CNC(=O)[C@@H](CCCCN)NC(=O)[C@H]1CCCN1C(=O)[C@H](NC(C)=O)C(C)C)C(=O)N[C@H](CO)C(=O)N[C@H](Cc1ccc(O)cc1)C(=O)N[C@H](CO)C(N)=O [compound 884, vpkGwrFhemsys]		reduction in binding to MC1R, inversion of D-Phe to L-Phe in the RI sequence (MC1R; relative to RI-MSH): 20 fold
0.51 nM	21 nM			CSCC[C@H](NC(=O)[C@H](CO)NC(=O)[C@H](Cc1ccc(O)cc1)NC(=O)[C@H](CO)NC(C)=O)C(=O)N[C@@H](CCC(=O)O)C(=O)N[C@@H](Cc1c[nH]cn1)C(=O)N[C@@H](CC1CCCCC1)C(=O)N[C@@H](CCCNC(=N)N)C(=O)N[C@@H](Cc1c[nH]c2ccccc12)C(=O)NCC(=O)N[C@@H](CCCCN)C(=O)N1CCC[C@H]1C(=O)N[C@H](C(N)=O)C(C)C [compound 892, SYSMEH(L-Cha)RWGKPV]		
6.5 nM	270 nM	~27 µM	~28000 nM	CSCC[C@@H](NC(=O)[C@@H](CCC(=O)O)NC(=O)[C@@H](Cc1c[nH]cn1)NC(=O)[C@@H](Cc1ccccc1)NC(=O)[C@@H](CCCNC(=N)N)NC(=O)[C@H](Cc1c[nH]c2ccccc12)NC(=O)CNC(=O)[C@@H](CCCCN)NC(=O)[C@H]1CCCN1C(=O)[C@H](NC(C)=O)C(C)C)C(=O)N[C@H](CO)C(=O)N[C@H](Cc1ccc(O)cc1)C(=O)N[C@H](CO)C(N)=O [compound 893, vpkGWrfhemsys]		
380 nM	212000 nM	> 30 µM	> 30000 nM	CSCC[C@@H](NC(=O)[C@@H](CCC(=O)O)NC(=O)[C@@H](Cc1c[nH]cn1)NC(=O)[C@@H](Cc1ccccc1)NC(=O)[C@H](CCCNC(=N)N)NC(=O)[C@@H](Cc1c[nH]c2ccccc12)NC(=O)CNC(=O)[C@@H](CCCCN)NC(=O)[C@H]1CCCN1C(=O)[C@H](NC(C)=O)C(C)C)C(=O)N[C@H](CO)C(=O)N[C@H](Cc1ccc(O)cc1)C(=O)N[C@H](CO)C(N)=O [compound 894, vpkGwRfhemsys]		
19 nM	300 nM	~37 µM	~37000 nM	CSCC[C@@H](NC(=O)[C@@H](CCC(=O)O)NC(=O)[C@H](Cc1c[nH]cn1)NC(=O)[C@@H](Cc1ccccc1)NC(=O)[C@@H](CCCNC(=N)N)NC(=O)[C@@H](Cc1c[nH]c2ccccc12)NC(=O)CNC(=O)[C@@H](CCCCN)NC(=O)[C@H]1CCCN1C(=O)[C@H](NC(C)=O)C(C)C)C(=O)N[C@H](CO)C(=O)N[C@H](Cc1ccc(O)cc1)C(=O)N[C@H](CO)C(N)=O [compound 895, vpkGwrfHemsys]		
